From patent US5527940A, “Methanediphosphonate derivative, its manufacturing process and its pharmaceutical applications” (Toray Industries, Inc., priority 1991, dated 1996)

Tests used:
[1] = test system: IL-1 production by J774-1 mouse macrophage cells; assay: Action on IL-1 Production by Strain J774-1 Mouse Macrophage Cells (LPS stimulated); assay type: cell-based; settings: 100 μM compound, LPS 1 μg/ml, 24 hours, read-out: IL-1 Production Inhibition Rate with respect to Control Group
Method: It is also known that these cells produce IL-1 when stimulated with LPS. The inhibitory action on IL-1 production of compounds of the present invention was measured according to the following procedure using this cell line.
The J774-1 cells were cultured in RPMI-1640 medium containing 10% fetal bovine serum and 50 μM 2-mercaptoethanol followed by adjusting the number of cells to 2×10^5 cells/ml. 1 ml aliquots of this cell suspension were then placed in the wells of a 24 well plate and cultured for 30 minutes. Following culturing, LPS was added to a final concentration of 1 μg/ml. At the same time, compounds obtained in Examples were dissolved in sterilized distilled water and added at a concentration of 100 μM. […]
The samples obtained above were serially diluted by a factor of 2 in a 96 well multiplate at a capacity of 50 μl. […] The thymus cells were then cultured for 72 hours and IL-1 activity was determined from the growth rate of the cells. […] Using the absorbance of the pigment produced by this reduction at 570 nm as the index, the dilution factor of the sample when growth of thymus cells is induced by 50% was calculated in terms of the number of units of that sample by taking the case of induction of maximum growth of T cells by human gene recombinant IL-1 to be 100% growth, and growth in the case of not adding IL-1 to be 0%. […]

[2] = test system: osteoclasts (mouse bone cells), resorption pit formation; assay: Bone resorption pit formation by mouse bone cells (osteoclasts) on ivory, active type-vitamin D3 stimulation; assay type: cell-based, ICR mice; settings: 10 nM active type-vitamin D3, 4 days
Description: The balance between bone formation and bone destruction is disturbed during osteoporosis, with bone destruction considered to be accelerated. Bone destruction is believed to occur due to an increase in the activation and number of osteoclasts. Experiments have been conducted wherein bone resorption was induced with active type-vitanium D3 stimulation using mouse bone cells dispersed on ivory for the experimental model. The bone resorption inhibitory action of compounds of the present invention was measured using this model.
After isolating the femur and tibia from 10-15 day old ICR mice, the bone specimens were prepared into thin sections in α-MEM medium containing 5% fetal bovine serum to prepare an bone cells suspension containing marrow cells and bone matrix. Large fragments of bone were removed with nylon mesh. Viable total cells were counted with trypan blue exclusion test while osteoclasts were stained with tartaric acid-resistantacid phosphatase stain to prepare a cell suspension containing osteoclasts in a proportion of roughly 0.05-0.1%. The ivory was cut into thin sections having a thickness of 150 μm using a low-speed rotary diamond cutter. The thin sections were then punched to a size that matched the size of the wells of a 96 well plate. These ivory fragments were placed in a 96 well plate followed by addition of the cell suspension prepared above so that each well contained 500 osteoclasts. 10 nM active type-vitamin D3 was added as stimulant simultaneous to addition of the drugs of the present invention at concentrations of 10 μM and 100 μM. After culturing the cells for 4 days at 37° C. in an environment of 10% CO2, the resorption pits that formed on the ivory slices were stained with hematoxylin and counted by observing microscopically. The resorption pit formation inhibition rate was then calculated using the formula indicated below. [formula]
The results were statistically processed using the Student's t-test, and those results that were significant at a level of significance of P<0.05 with respect to an active type-vatanium D3 stimulation control group were indicated with one asterisk (*), while those results that were significant at a level of significance of P<0.01 were indicated with two asterisks (**).

Question: For CSc1ccc(SC(P(=O)(O)O)P(=O)(O)O)cc1 [Example 2, (4-methylthiophenyl)thiomethanediphosphonic acid], which inhibition at 100 µM [1] is on record?
Answer: 51.4%

Question: And the “resorption pit formation Inhibition Rate with respect to Control Group” value ([2]; 10 μM compound)?
Answer: 79.9 ± 3.12%

Question: What about the “resorption pit formation Inhibition Rate with respect to Control Group” value ([2]; 100 μM compound) of the same molecule?
Answer: 92.6 ± 1.08%
